# Measured values taken from patent US10294202B2, “Pyrrolidinones as herbicides” (FMC Corporation, priority 2013, dated 2019).
# What was measured:
# Test in all cases: Test D pre-/postemergence herbicide test
# [1] = system: bluegrass; format: in vivo, Poa annua; settings: for Plant response rating: Bluegrass, scale 0 to 100; for Plant response rating, Bluegrass: scale 0 to 100 (0 no effect, 100 complete control)
# Excerpt: (§1) Seeds of plant species selected from bluegrass (annual bluegrass, Poa annua), blackgrass (Alopecurus myosuroides), canarygrass (littleseed canarygrass, Phalaris minor), chickweed (common chickweed, Stellaria media), galium (catchweed bedstraw, Galium aparine), bromegrass, downy (downy bromegrass, Bromus tectorum), field poppy (Papaver rhoeas), field violet (Viola arvensis), foxtail, green (green foxtail, Setaria viridis), deadnettle (henbit deadnettle, Lamium amplexicaule), ryegrass, Italian (Italian ryegrass, Lolium multiflorum), kochia (Kochia scoparia), lambsquarters (Chenopodium album), oilseed rape (Brassica napus), pigweed (Amaranthus retroflexus), chamomile (scentless chamomile, Matricaria inodora), Russian thistle (Salsola kali), speedwell (bird's-eye speedwell, Veronica persica), barley, spring (spring barley, Hordeum vulgare), wheat, spring (spring wheat, Triticum aestivum), buckwheat, wild (wild buckwheat, Polygonum convolvulus), mustard, wild (wild mustard, Sinapis arvensis), oat, wild (wild oat, Avena fatua), radish, wild (wild radish, Raphanus raphanistrum), […]), barley, winter (winter barley, Hordeum vulgare), and wheat, winter (winter wheat, Triticum aestivum) were planted into a silt loam soil and treated preemergence with test chemicals formulated in a non-phytotoxic solvent mixture which included a surfactant. At the same time, these species were planted in pots containing Redi-Earth® planting medium (Scotts Company, 14111 Scottslawn Road, Marysville, Ohio 43041) comprising spaghnum peat moss, vermiculite, wetting agent and starter nutrients and treated with postemergence applications of the test chemicals formulated in the same manner. Plants ranged in height from 2 to 18 cm (1- to 4-leaf stage). Treated plants and controls were maintained in a controlled growth environment for 7 to 21 days after which time all species were compared to controls and visually evaluated. Plant response ratings, summarized in Table D, are based on a scale of 0 to 100 where 0 is no effect and 100 is complete control. A dash (-) response means no test result.
# [2] = system: blackgrass; format: in vivo, Alopecurus myosuroides; settings: for Plant response rating: Blackgrass, scale 0 to 100; for Plant response rating, Blackgrass: scale 0 to 100 (0 no effect, 100 complete control)
# Summary of the method: (§2)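 Postemergence sprays were made on plants at the 1- to 4-leaf stage in peat-based medium, and preemergence sprays on seeds planted in silt loam. The formulation was a non-phytotoxic solvent mixture containing surfactant. Plants were compared with controls after 7 to 21 days and rated visually on a 0–100 scale.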
# [3] = system: galium; format: in vivo, Galium aparine; settings: for Plant response rating: Galium, scale 0 to 100; for Plant response rating, Galium: scale 0 to 100 (0 no effect, 100 complete control)
# Excerpt: as §1
# [4] = system: bromegrass, downy; format: in vivo, Bromus tectorum; settings: for Plant response rating: Bromegrass, Downy, scale 0 to 100; for Plant response rating, Bromegrass, Downy: scale 0 to 100 (0 no effect, 100 complete control)
# Summary of the method: as §2
# [5] = system: foxtail, green; format: in vivo, Setaria viridis; settings: for Plant response rating: Foxtail, Green, scale 0 to 100; for Plant response rating, Foxtail, Green: scale 0 to 100 (0 no effect, 100 complete control)
# Excerpt: as §1
# [6] = system: deadnettle; format: in vivo, Lamium amplexicaule; settings: for Plant response rating: Deadnettle, scale 0 to 100; for Plant response rating, Deadnettle: scale 0 to 100 (0 no effect, 100 complete control)
# Summary of the method: as §2
# [7] = system: buckwheat, wild; format: in vivo, Polygonum convolvulus; settings: for Plant response rating: Postemergence, Buckwheat, Wild, scale 0 to 100; for Plant response rating, Buckwheat, Wild: Preemergence, scale 0 to 100 (0 no effect, 100 complete control)
# Excerpt: as §1
compound,measurement,setting,value
O=C1NCC(c2cc(F)c(F)cc2F)C1C(=O)Nc1cccc(F)c1F (stereo not shown) [Compound 50],Plant response rating,"[1]; Postemergence, 16 g ai/ha",0
same,Plant response rating,"[1]; Postemergence, 31 g ai/ha",0
same,Plant response rating,"[1]; Postemergence, 62 g ai/ha",0
same,Plant response rating,"[1]; Postemergence, 125 g ai/ha",0
same,"Plant response rating, Bluegrass","[1]; Preemergence, 62 g ai/ha",0
same,"Plant response rating, Bluegrass","[1]; Preemergence, 16 g ai/ha",0
same,"Plant response rating, Bluegrass","[1]; Preemergence, 31 g ai/ha",0
same,Plant response rating,"[1]; Preemergence, 125 g ai/ha",0
same,Plant response rating,"[2]; Postemergence, 16 g ai/ha",0
same,Plant response rating,"[2]; Postemergence, 31 g ai/ha",0
same,Plant response rating,"[2]; Postemergence, 62 g ai/ha",0
same,Plant response rating,"[2]; Postemergence, 125 g ai/ha",0
same,"Plant response rating, Blackgrass","[2]; Preemergence, 62 g ai/ha",0
same,"Plant response rating, Blackgrass","[2]; Preemergence, 16 g ai/ha",0
same,"Plant response rating, Blackgrass","[2]; Preemergence, 31 g ai/ha",0
same,Plant response rating,"[2]; Preemergence, 125 g ai/ha",0
same,Plant response rating,"[3]; Postemergence, 16 g ai/ha",0
same,Plant response rating,"[3]; Postemergence, 31 g ai/ha",0
same,Plant response rating,"[3]; Postemergence, 62 g ai/ha",0
same,Plant response rating,"[3]; Postemergence, 125 g ai/ha",0
same,"Plant response rating, Galium","[3]; Preemergence, 62 g ai/ha",0
same,"Plant response rating, Galium","[3]; Preemergence, 16 g ai/ha",0
same,"Plant response rating, Galium","[3]; Preemergence, 31 g ai/ha",0
same,Plant response rating,"[3]; Preemergence, 125 g ai/ha",0
same,Plant response rating,"[4]; Postemergence, 16 g ai/ha",0
same,Plant response rating,"[4]; Postemergence, 31 g ai/ha",0
same,Plant response rating,"[4]; Postemergence, 62 g ai/ha",0
same,Plant response rating,"[4]; Postemergence, 125 g ai/ha",0
same,"Plant response rating, Bromegrass, Downy","[4]; Preemergence, 62 g ai/ha",0
same,"Plant response rating, Bromegrass, Downy","[4]; Preemergence, 16 g ai/ha",0
same,"Plant response rating, Bromegrass, Downy","[4]; Preemergence, 31 g ai/ha",0
same,Plant response rating,"[4]; Preemergence, 125 g ai/ha",0
same,Plant response rating,"[5]; Postemergence, 16 g ai/ha",0
same,Plant response rating,"[5]; Postemergence, 31 g ai/ha",0
same,Plant response rating,"[5]; Postemergence, 62 g ai/ha",0
same,Plant response rating,"[5]; Postemergence, 125 g ai/ha",0
same,"Plant response rating, Foxtail, Green","[5]; Preemergence, 62 g ai/ha",50
same,"Plant response rating, Foxtail, Green","[5]; Preemergence, 16 g ai/ha",0
same,"Plant response rating, Foxtail, Green","[5]; Preemergence, 31 g ai/ha",0
same,Plant response rating,"[5]; Preemergence, 125 g ai/ha",40
same,Plant response rating,"[6]; Postemergence, 16 g ai/ha",0
same,Plant response rating,"[6]; Postemergence, 31 g ai/ha",0
same,Plant response rating,"[6]; Postemergence, 62 g ai/ha",0
same,Plant response rating,"[6]; Postemergence, 125 g ai/ha",0
same,"Plant response rating, Deadnettle","[6]; Preemergence, 62 g ai/ha",100
same,"Plant response rating, Deadnettle","[6]; Preemergence, 16 g ai/ha",50
same,"Plant response rating, Deadnettle","[6]; Preemergence, 31 g ai/ha",50
same,Plant response rating,"[6]; Preemergence, 125 g ai/ha",100
same,Plant response rating,[7]; 16 g ai/ha,10
same,Plant response rating,[7]; 31 g ai/ha,10
same,Plant response rating,[7]; 62 g ai/ha,10
same,Plant response rating,[7]; 125 g ai/ha,10
same,"Plant response rating, Buckwheat, Wild",[7]; 62 g ai/ha,0
same,"Plant response rating, Buckwheat, Wild",[7]; 16 g ai/ha,0
same,"Plant response rating, Buckwheat, Wild",[7]; 31 g ai/ha,0
